Data set [1] relates to Pseudomonas aeruginosa (NBRC 13275). Briefly: Transmission electron microscope observation. The class given is cell-based. As to conditions: 37° C., 2 hours, complex 1,000 μg/mL, mixture 500 + 500 μg/mL; for morphological changes (TEM): lysozyme alone 500 μg/mL, chitosan alone 500 μg/mL. The procedure: (§1) As a control, physiological saline (0.9% NaCl solution) was used.
(§2) Then, centrifugation was performed, and the resultant pellets were washed with physiological saline (0.9% NaCl), fixed in a 1.0% buffered osmium tetroxide buffer solution in a 0.1 M phosphate buffered saline for 1 hour, embedded in 2.0% agar, dehydrated with ethanol, and then embedded in Epon 812 (TAAB Laboratories Equipment Ltd.). Ultrathin sections of 70 nm were collected on a copper grid, double-stained with uranyl acetate and lead citrate, and observed with a transmission electron microscope (H-7100) at 75 kV.

Data set [2] deals with Acinetobacter baumannii. The data set is described as follows: Transmission electron microscope observation. The class given is cell-based. As to conditions: 37° C., 2 hours, complex 1,000 μg/mL, mixture 500 + 500 μg/mL; for morphological changes (TEM): lysozyme alone 500 μg/mL, chitosan alone 500 μg/mL. The procedure:
as §1, §2

Data set [3] concerns Pseudomonas aeruginosa (NBRC 13275). The data set is described as follows: Cell membrane integrity test (absorbance at 260 nm). The class given is cell-based. The text has this:
(§3) The measurement of absorbance at 260 nm (A260nm) was used to estimate the amount of nucleic acid released from the cytoplasm, thereby evaluating the integrity of the cell membrane. When a bacterial cell membrane is compromised by an antibacterial agent, intracellular components are released into the extracellular space. The measurement of absorbance at 260 nm is used to estimate the amount of DNA and RNA released from the cytoplasm.
(§4) Specifically, evaluation on whether substances with absorption at 260 nm were released from the bacteria was performed by measuring the absorption at 260 nm with ND-1000 manufactured by Thermo Fisher Scientific. […] As a control, a 0.5% NaCl solution was used. The Pseudomonas aeruginosa bacterial suspension and Acinetobacter bacterial suspension prepared in the same manner as in Experimental Example 1 were resuspended in a 0.5% NaCl solution, and prepared with such a final suspension concentration that the absorbance at 420 nm was 0.7. […] At 20 minutes, 40 minutes, 60 minutes, 80 minutes, 100 minutes, and 120 minutes after the start of incubation, each solution was subjected to a 0.22 μm syringe filter to remove bacteria, and the absorbance at 260 nm (A260nm) was measured. The results for absorbance, expressed as the average of triplicate measurements and SEM (standard error of sample mean), are shown in FIGS. 4A and 4B.

The test system is the same in data set [4]. The data set is described as follows: Bacteria-killing test at various concentrations (Experimental Example 2). The class given is cell-based. As to conditions: 200 μg/mL, 2,000 μg/mL and 10,000 μg/mL in physiological saline. The procedure:
(§5) As a control, physiological saline (0.9% NaCl solution) was used. The Acinetobacter bacterial suspension or Pseudomonas aeruginosa bacterial suspension was prepared as follows. Pseudomonas aeruginosa (NBRC 13275 or PAO1) or Acinetobacter baumannii (JCM 6841) was grown overnight at 37° C. in trypsin soy broth (TSB), centrifuged during the logarithmic growth phase, and collected, and the bacteria were resuspended in physiological saline (0.9% NaCl), with such a final suspension concentration that the absorbance was 1.0 (10^8 to 10^9 CFU/mL) at 600 nm.
(§6) At 0 minutes, 30 minutes, 60 minutes, and 120 minutes after the start of incubation, 0.1 mL of each solution was added to a solid medium (Mueller-Hinton medium) for overnight growth, and then the bacteria count was measured. The test of the bacterial suspensions against each solution was performed three times and measured.

Data set [5] shares this test system. Briefly: Growth suppression effect test at various concentrations (Experimental Example 4). To be noted: 2,000 μg/mL, 5,000 μg/mL and 10,000 μg/mL in TSB, 6 hours. The format is cell-based. The procedure: (§7) As a control, TSB medium without additives was used. The Acinetobacter bacterial suspension or Pseudomonas aeruginosa bacterial suspension was prepared in the same way as in Experimental Example 1 described above. […] After 6 hours, 0.1 mL of each solution was added to a solid medium (Mueller-Hinton medium) and allowed to grow overnight, and then the bacteria count was measured. The bacterial suspensions were tested on each solution 18 times for Pseudomonas aeruginosa (NBRC 13275) and 8 times each for Pseudomonas aeruginosa (PAO1) and Acinetobacter by duplicate (mean of triplicate measurements and SEM (standard error of sample mean)) in independent experiments.

Data set [6] relates to Acinetobacter (JCM 6841). The data set is described as follows: Cell membrane integrity test (absorbance at 260 nm). The format is cell-based, Acinetobacter baumannii.
Source text: as §3, §4

The subject of data set [7] is Acinetobacter baumannii. The data set is described as follows: Drug resistance acquisition test (MIC after repeated subculture). The format is cell-based. To be noted: after 10 subcultures at ½ MIC in LB medium. The procedure:
(§8) The MIC was defined as the minimum concentration of the reagent without visual turbidity observed after 18 hours and 24 hours of evaluation. […] The bacteria that were not subcultured was evaluated as a control (CTL in FIGS. 10A and 10B). MIC measurements were repeated 10 times to evaluate the development of drug resistance in these bacteria.

The test system of data set [8] is Pseudomonas aeruginosa (NBRC 13275 and PAO 1). The description is as above. The format is cell-based. To be noted: after 10 subcultures at ½ MIC in LB medium. The procedure: as §8
Data set [9] deals with Acinetobacter baumannii (JCM 6841). Briefly: Bacteria-killing test (Experimental Example 1). The class given is cell-based. To be noted: 2,000 μg/mL in physiological saline, 37° C., at 60 minutes and 120 minutes, versus control. The procedure: The bacteria-killing property of the lysozyme-chitosan complex (LYZOX (registered trademark)) against Acinetobacter and the like was measured in comparison with a mixture of lysozyme and chitosan and the like.
as §5, §6

For data set [10] the test system is unchanged. The data set is described as follows: Growth suppression effect test (Experimental Example 3). The class given is cell-based. As to conditions: 2,000 μg/mL in TSB, 37° C., 6 hours, versus control. The procedure:
as §7

Data set [11] concerns Pseudomonas aeruginosa (NBRC 13275). The data set is described as follows: Confocal laser scanning microscope observation (LIVE/DEAD BacLight). The format is cell-based. To be noted: final 1,000 μg/mL, 37° C., 2 hours. The procedure:
(§9) As a control, physiological saline (0.9% NaCl solution) was used. To 500 μL of these solutions, 500 μL of Pseudomonas aeruginosa bacterial suspension and Acinetobacter bacterial suspension prepared in the same manner as in Experimental Example 1 above was added, and incubated at 37° C. for 2 hours. Then, 3 μL of LIVE/DEAD BacLight reagent (a mixture of SYTO 9 and propidium iodide (PI), which stain nucleic acids) was added and further incubated for 15 minutes at room temperature. SYTO 9 with green fluorescence labels all bacteria, while PI with red fluorescence permeates only bacteria with damaged plasma membranes, and the presence of both dyes attenuates the fluorescence of SYTO 9.

In data set [12] the test system is Acinetobacter (JCM 6841). The data set is described as follows: ONPG assay (intracellular membrane permeability test). The class given is cell-based, Acinetobacter baumannii. As to conditions: for absorbance 420 nm (ONPG), time course: up to 100 minutes. The procedure:
(§10) Intracellular membrane permeability was determined by ONPG assay (o-nitrophenyl-β-D-galactopyranoside (ONPG) assay). When the cell membrane is damaged, intracellular enzymes, including β-galactosidase, leak out of the cell. ONPG is normally colorless, but is hydrolyzed by β-galactosidase to galactose and o-nitrophenol, resulting in an increase in absorbance at 420 nm. The intracellular membrane permeability of bacteria can be determined by measuring the activity of cytosolic β-galactosidase released from the bacteria using ONPG as a substrate.
(§11) Specifically, evaluation on whether substances with absorption at 420 nm were released was performed by measuring the absorption at 420 nm with the spectrophotometer ASV11D. […] As a control, a 0.5% NaCl solution was used. The Pseudomonas aeruginosa bacterial suspension and Acinetobacter bacterial suspension prepared in the same manner as in Experimental Example 1 were resuspended in a 0.5% NaCl solution, and prepared with such a final suspension concentration that the absorbance at 420 nm was 1.2. […] The increase in absorbance at 420 nm (A420nm) was evaluated by performing triplicate measurements.

In data set [13] the test system is Pseudomonas aeruginosa (NBRC 13275). The description is as above. The format is cell-based. To be noted: final 200, 2,000 and 5,000 μg/mL. The procedure: as §10, §11
Data set [14] relates to Acinetobacter (JCM 6841). The data set is described as follows: Confocal laser scanning microscope observation (LIVE/DEAD BacLight). The format is cell-based, Acinetobacter baumannii. To be noted: final 1,000 μg/mL, 37° C., 2 hours. The procedure: as §9
[15] abbreviates: final 2,000, 5,000 and 10,000 μg/mL, 0.5% NaCl, 37° C.
The mark [16] stands for this setting: various concentrations, 20 to 120 minutes.

Protocol for rabbit erythrocytes: Each resulting mixed solution was incubated at 37° C. for 1 hour, and centrifuged at 1500 rpm for 10 minutes, and the supernatant was collected. […] Each absorbance (OD) was measured at 545 nm to calculate the hemolytic rate by using the following formula. The absorbance value at 545 nm was expressed as the average and SEM (standard error of the sample mean) of triplicate measurements.

On to “lysozyme-chitosan complex: Commercial LYZOX powder: chicken-derived lysozyme (about 14,000 Da) and about 5,000 Da water-soluble chitosan, mass ratio 1:1, bound by Maillard reaction”, for which the “hemolysis of rabbit erythrocytes” value in the data set with rabbit erythrocytes is on record as “almost did not hemolyze”. The “morphological changes (TEM)” value (in [1]; in the data set on Acinetobacter baumannii [2]) was “spherical cells with outer membrane vesicles” each time. Besides, the “cell walls and intracellular contents (TEM)” value in data set [1] was “bacterial cell walls were disrupted and the intracellular contents were released from the cells”; with Acinetobacter baumannii [2], “bacterial cell walls were disrupted and the intracellular contents were released from the cells”. In addition, the “absorbance 260 nm, dependence on concentration” value (in data set [3] (setting [15]); with Acinetobacter (JCM 6841) [6] (setting [15])) was “increased in a concentration-dependent manner” throughout. In addition, the “absorbance 260 nm, time course” value in [3] (setting [16]) is “increased rapidly in the first 20 minutes, and then the rate of increase decreased until 120 minutes”; in the data set on Acinetobacter (JCM 6841) [6] (setting [16]), “increased rapidly in the first 20 minutes, and then the rate of increase decreased until 120 minutes”. For the same substance, the “bacteria-killing activity (bacteria count)” value in data set [4] was “concentration-dependent bacteria-killing activity”. Further, the “growth suppression effect (bacteria count)” value in data set [5] is given as “concentration-dependent growth suppression effect”. Moreover, in the data set with Acinetobacter (JCM 6841) [6] (final 2,000, 5,000 and 10,000 μg/mL, 20 to 120 minutes), the “absorbance 260 nm compared to the control” value was “higher absorbance in Acinetobacter compared to the control”. The “acquisition of drug resistance (change of MIC)” value (in the data set on Acinetobacter baumannii [7]; in [8]) was “did not acquire resistance” each time. In data set [9], the “bacteria count (bacteria-killing)” value is recorded as “significantly reduced the bacteria count than the control”. For the same substance, the “bacteria count (growth suppression)” value in [10] is recorded as “significantly reduced the bacteria count than the control”. In addition, the “aggregation of bacterial cells (CLSM)” value in data set [11] is reported as “aggregated to form clusters”; in the data set on Acinetobacter (JCM 6841) [14] it was “less aggregation of bacterial cells than Pseudomonas aeruginosa”. Also, the “bacterial cells with damaged membranes (red fluorescence, CLSM)” value (in data set [11]; in the data set with Acinetobacter (JCM 6841) [14]) was “more bacterial cells with damaged membranes than in the corresponding control” throughout. Besides, the “absorbance 420 nm (ONPG), time course” value is “increased in the first 10 minutes and remained constant thereafter” in the data set with Acinetobacter (JCM 6841) [12] (200 μg/mL); “increased rapidly at first and then slowly until 100 minutes” with Acinetobacter (JCM 6841) [12] (2,000 μg/mL and 5,000 μg/mL). The “effect on the inner membrane” value in the data set with Acinetobacter (JCM 6841) [12] (ONPG assay) is “disrupt the inner membrane of Acinetobacter”. Moreover, the “absorbance 420 nm (ONPG), dependence on concentration” value in the data set on Acinetobacter (JCM 6841) [12] (final 200, 2,000 and 5,000 μg/mL) is listed as “increased in a concentration-dependent manner”; in data set [13] it was “increased in a concentration-dependent manner”.
On to “poly-β1→4-glucosamine [chitosan alone, reference compound]”, for which the “morphological changes (TEM)” value (in data set [1]; with Acinetobacter baumannii [2]) was “formed numerous vesicles on their surfaces” throughout.
As to “lysozyme alone: lysozyme (manufactured by Nippon Biocon Ltd.), enzyme that hydrolyzes mucopolysaccharides [reference compound]”, the “morphological changes (TEM)” value (in data set [1]; in the data set with Acinetobacter baumannii [2]) was “formed spheroplasts” in each case.
